Values quoted from earlier work in US10968484B2, “Methods of identifying responses to map kinase inhibition therapy” (The Broad Institute, Inc., priority 2013, dated 2021).
Read-outs that look alike come from different tables or passages of the source.

System: BRAF_V600-mutant melanomas (cell lines)
Settings: read-out: PLX4720 IC50

IC50 (resistance class of BRAF_V600-mutant melanoma cell lines): ≥ 8 µM
IC50 (sensitive class of BRAF_V600-mutant melanoma cell lines): < 1.6 µM
SMILES: CCCS(=O)(=O)Nc1ccc(F)c(C(=O)c2c[nH]c3ncc(Cl)cc23)c1F [PLX4720]
